From article PMC8120209, “Longitudinal evaluation of a novel BChE PET tracer as an early in vivo biomarker in the brain of a mouse model for Alzheimer disease” (Theranostics, 2021)

How the values were obtained:
Parameters in all cases: Eurofins SafetyScreen44 radioligand displacement, inhibition of control specific binding
adrenergic receptor α1A [1] = molecular target: T1, adrenergic receptor α1A (Homo sapiens, UniProt P35348); conditions: reference compound; binder
T1 construct: gene ADRA1A
T1 sequence (P35348 1-466): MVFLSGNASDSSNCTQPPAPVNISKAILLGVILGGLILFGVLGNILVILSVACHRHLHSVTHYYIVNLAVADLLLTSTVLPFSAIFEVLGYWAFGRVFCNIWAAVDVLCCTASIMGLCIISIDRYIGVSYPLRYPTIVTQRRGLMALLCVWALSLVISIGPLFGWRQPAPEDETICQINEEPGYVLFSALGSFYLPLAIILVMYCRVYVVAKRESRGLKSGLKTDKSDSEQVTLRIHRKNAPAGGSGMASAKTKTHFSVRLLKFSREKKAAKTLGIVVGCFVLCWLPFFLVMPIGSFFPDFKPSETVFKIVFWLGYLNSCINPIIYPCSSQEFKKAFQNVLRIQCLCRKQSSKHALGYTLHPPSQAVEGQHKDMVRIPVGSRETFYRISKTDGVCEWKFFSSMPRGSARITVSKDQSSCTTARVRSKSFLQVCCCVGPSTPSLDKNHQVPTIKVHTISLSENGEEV

adrenergic receptor α1A [2] = molecular target: T1, adrenergic receptor α1A; conditions: reference compound; binder; remark: listed apart in the source
5-HT2B(h) = molecular target: T2, 5-HT2B(h) (Homo sapiens, UniProt P41595); test: biochemical; conditions: reference compound
T2 construct: gene HTR2B
T2 sequence (P41595 whole entry): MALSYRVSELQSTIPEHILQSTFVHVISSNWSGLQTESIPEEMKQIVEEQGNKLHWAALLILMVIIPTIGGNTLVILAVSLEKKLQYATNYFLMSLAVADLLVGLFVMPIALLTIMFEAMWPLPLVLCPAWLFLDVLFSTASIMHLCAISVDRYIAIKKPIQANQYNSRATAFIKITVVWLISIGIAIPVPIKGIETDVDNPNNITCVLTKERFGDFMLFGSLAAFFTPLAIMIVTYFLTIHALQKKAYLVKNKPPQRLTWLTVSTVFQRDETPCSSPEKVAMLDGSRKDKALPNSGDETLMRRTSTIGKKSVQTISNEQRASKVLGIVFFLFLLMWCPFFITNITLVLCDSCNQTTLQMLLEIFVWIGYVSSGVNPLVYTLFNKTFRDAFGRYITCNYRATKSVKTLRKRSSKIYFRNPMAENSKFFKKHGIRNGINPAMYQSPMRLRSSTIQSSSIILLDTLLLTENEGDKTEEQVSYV

N neuronal α7 (h) [3] = molecular target: T3, N neuronal α7 (h) (Homo sapiens, UniProt P36544); conditions: reference compound; binder
T3 construct: gene CHRNA7
T3 sequence (P36544 whole entry): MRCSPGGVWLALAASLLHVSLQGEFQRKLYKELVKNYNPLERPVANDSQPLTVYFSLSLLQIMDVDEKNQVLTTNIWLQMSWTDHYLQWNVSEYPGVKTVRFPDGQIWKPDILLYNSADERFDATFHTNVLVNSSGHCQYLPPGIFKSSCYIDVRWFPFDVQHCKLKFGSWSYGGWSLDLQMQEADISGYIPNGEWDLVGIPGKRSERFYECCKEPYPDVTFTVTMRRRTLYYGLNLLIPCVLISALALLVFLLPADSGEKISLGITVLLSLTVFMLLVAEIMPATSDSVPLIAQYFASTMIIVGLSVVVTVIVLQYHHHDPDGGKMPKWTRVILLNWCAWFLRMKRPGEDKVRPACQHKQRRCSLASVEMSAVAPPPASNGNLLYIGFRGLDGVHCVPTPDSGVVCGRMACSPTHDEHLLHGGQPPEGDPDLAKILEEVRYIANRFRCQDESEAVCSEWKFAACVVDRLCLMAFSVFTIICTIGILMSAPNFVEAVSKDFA

N neuronal α7 (h) [4] = molecular target: T3, N neuronal α7 (h); conditions: reference compound; binder; remark: listed apart in the source
M5(h) = molecular target: T4, M5(h) (Homo sapiens, UniProt P08912); test: biochemical; conditions: reference compound
T4 construct: gene CHRM5
T4 sequence (P08912 whole entry): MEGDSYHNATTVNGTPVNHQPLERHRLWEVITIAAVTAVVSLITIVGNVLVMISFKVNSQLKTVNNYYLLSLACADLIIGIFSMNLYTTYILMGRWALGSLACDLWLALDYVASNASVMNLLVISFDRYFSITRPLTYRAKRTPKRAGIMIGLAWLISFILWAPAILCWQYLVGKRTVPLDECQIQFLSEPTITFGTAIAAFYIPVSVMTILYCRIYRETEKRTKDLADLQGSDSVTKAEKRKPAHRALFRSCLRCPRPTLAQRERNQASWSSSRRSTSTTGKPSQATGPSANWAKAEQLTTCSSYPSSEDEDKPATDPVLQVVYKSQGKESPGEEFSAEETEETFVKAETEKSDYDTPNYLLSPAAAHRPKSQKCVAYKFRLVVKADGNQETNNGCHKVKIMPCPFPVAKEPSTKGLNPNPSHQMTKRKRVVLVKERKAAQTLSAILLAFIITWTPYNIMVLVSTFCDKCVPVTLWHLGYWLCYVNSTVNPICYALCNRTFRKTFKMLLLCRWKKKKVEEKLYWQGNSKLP

SMILES: COc1cccc(OC)c1OCCNCC1COc2ccccc2O1 (stereo not drawn) [WB 4101]
- IC50 (adrenergic receptor α1A [1]): 0.61 nM
- Ki (adrenergic receptor α1A [2]): 0.3 nM

SMILES: COc1cc(CC(C)N)c(OC)cc1I (racemic) [(±)DOI]
- Ki (5-HT2B(h)): 1.8 nM

SMILES: Clc1ccc(C2CC3CCC2N3)cn1 (racemic) [(±)epibatidine]
- Ki (N neuronal α7 (h) [3]): 75 nM
- IC50 (N neuronal α7 (h) [4]): 86 nM

SMILES: C[N+]1(C)CCC(OC(=O)C(c2ccccc2)c2ccccc2)CC1 [4-DAMP]
- Ki (M5(h)): 0.5 nM
